Experimental data from PubChem BioAssay (NCI).
“And” between values parts separate entries of the source, which are not always exact repeats. Equal values may be shown once.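 All cell lines were grown in 96-well plates and treated with compound for 48 hours. Abbreviation: GI50, concentration required for 50% inhibition of growth. TGI denotes the concentration required for complete inhibition of growth.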

Legend:
Experiment in all cases: inhibition of tumour cell growth, NCI panel, 48 h
786-0 renal = test system: 786-0 renal
U251 CNS = test system: U251 CNS
IGROV1 ovarian = test system: IGROV1 ovarian
NCI-H522 lung = test system: NCI-H522 lung
SW-620 colon = test system: SW-620 colon
NCI-H226 lung = test system: NCI-H226 lung
COLO 205 colon = test system: COLO 205 colon
UACC-62 melanoma = test system: UACC-62 melanoma
TK-10 renal = test system: TK-10 renal
SN12C renal = test system: SN12C renal

SMILES	TGI (786-0 renal)	TGI (U251 CNS)	TGI (IGROV1 ovarian)	TGI (NCI-H522 lung)	TGI (SW-620 colon)	TGI (NCI-H226 lung)	TGI (COLO 205 colon)	TGI (UACC-62 melanoma)	TGI (TK-10 renal)	TGI (SN12C renal)	GI50 (U251 CNS)	GI50 (NCI-H522 lung)	GI50 (UACC-62 melanoma)	GI50 (TK-10 renal)	GI50 (IGROV1 ovarian)	GI50 (SW-620 colon)	GI50 (SN12C renal)
O=S(=O)(Oc1ccc2oc3ccccc3c2c1-c1c(OS(=O)(=O)C(F)(F)F)ccc2oc3ccccc3c12)C(F)(F)F	> 100 µM	> 100 µM	> 100 µM	> 100 µM	> 100 µM	> 100 µM	> 100 µM	> 100 µM	> 100 µM								
O=c1cc(CNC2CCCC2)[nH]c(=O)[nH]1	> 100 µM	> 100 µM	> 100 µM	> 100 µM	> 100 µM		> 100 µM	> 100 µM	> 100 µM	> 100 µM							
C=C(C)C(=O)CC[C@@H](C)[C@H]1[C@@H](OC2OC(CO)C(O)C(O)C2O)C[C@@]2(C)[C@@H]3C[C@H](O)C4C(C)(C)[C@@H](OC5OC(CO)C(O)C(O)C5O)CC[C@@]45C[C@@]35CC[C@]12C (stereo not given in full)	> 100 µM	> 100 µM	> 100 µM	> 100 µM	> 100 µM		> 100 µM	> 100 µM	> 100 µM	> 100 µM							
[O-]/[N+](=C\c1ccccc1)[C@H](COCc1ccccc1)c1ccccc1	> 100 µM	> 100 µM	> 100 µM	> 100 µM	> 100 µM		> 100 µM		> 100 µM								
CCC1(O)CC(OC2CC(N(C)C)C(OC3CC4OC5CC(=O)C(C)OC5OC4C(C)O3)C(C)O2)c2c(cc3c(c2O)C(=O)c2c(O)ccc(O)c2C3=O)C1C(=O)OC (stereo not given)				0.0319 µM and 0.0122 µM and 0.0182 µM				0.0164 µM and 0.0136 µM			0.00486 µM and 0.00785 µM and < 0.0121 µM	0.00111 µM and 0.00788 µM	0.00479 µM and 0.00857 µM	0.0168 µM and 0.00314 µM			
COc1cccc2c1OC1c3ccccc3OCC1C2 (stereo not given)	> 100 µM	> 100 µM	> 100 µM		> 100 µM	> 100 µM	> 100 µM	> 100 µM	> 100 µM	> 100 µM							
O=C(CSc1nnc(-c2ccc(N=Cc3ccc(Cl)cc3)cc2)o1)Nc1ccccc1Cl	> 100 µM	> 100 µM		> 100 µM	> 100 µM	> 100 µM	> 100 µM	> 100 µM	> 100 µM								
COc1ccc2oc(=N)c(C(=O)Nc3cccc4ccccc34)cc2c1	28 µM	50.2 µM			> 100 µM	> 100 µM	> 100 µM	17.1 µM	51.1 µM	> 100 µM							
CC1=NN(C(=O)CSc2nnc(SCC(=O)N3N=C(C)CC3(O)c3ccccc3)s2)C(O)(c2ccccc2)C1 (stereo not given)	> 100 µM	> 100 µM	> 100 µM	> 100 µM	> 100 µM		> 100 µM	56.3 µM	> 100 µM	> 100 µM							
O=C1c2ccccc2C(=O)N1n1c(Cc2ccccc2)n[nH]c1=O	> 100 µM	> 100 µM	> 100 µM		> 100 µM	> 100 µM	> 100 µM	> 100 µM	> 100 µM	> 100 µM							
O=C1NC(N/N=C\C(O)C(O)C(O)CO)=N/C1=C/c1ccccc1 (stereo not given)	> 100 µM	> 100 µM	> 100 µM	> 100 µM	> 100 µM	> 100 µM	> 100 µM		> 100 µM	> 100 µM		> 100 µM and 46.5 µM			> 100 µM and 43.3 µM	> 100 µM and 34 µM	> 100 µM and 46.8 µM
CC1=NN(c2nc(N)nc(-c3ccccc3S(N)(=O)=O)n2)C(C)(C)C1	> 100 µM	> 100 µM	> 100 µM	> 100 µM	> 100 µM	> 100 µM			> 100 µM								
CC(=O)NC1C(OCc2ccccc2)OC(CO)C(O)C1OCC(=O)NC(C)C(=O)NC(CCC(=O)NCCCCNc1ccc([N+](=O)[O-])c2[nH]c3ccccc3c(=O)c12)C(N)=O (stereo not given)	> 100 µM	> 100 µM	> 100 µM		> 100 µM	> 100 µM	> 100 µM		> 100 µM	> 100 µM							
O=C1N[C@H]2c3c(Cl)sc(Cl)c3/C(=N/O)[C@H]2O1	> 100 µM	> 100 µM	> 100 µM		> 100 µM		> 100 µM	> 100 µM	> 100 µM	> 100 µM							
CCOC(=O)CCCn1nnc(C(=O)OCC)c1C(=O)OCC	> 100 µM	> 100 µM	> 100 µM		> 100 µM	> 100 µM	> 100 µM	> 100 µM	> 100 µM	> 100 µM							
CO/C(=N\N=C\c1cc(OC)ccc1OC)c1ccncc1	> 10 µM	> 10 µM	> 10 µM		> 10 µM	> 10 µM	> 10 µM		> 10 µM	> 10 µM							
CCC(C)[C@@H](NCc1ccccc1)[C@H](OCc1ccccc1)[C@@H]1COC(C)(C)O1 (stereo not given in full)	46.3 µM	51.1 µM	37.4 µM		48.5 µM	30.6 µM	36.6 µM	42.3 µM	32.7 µM	49 µM							
